Key:
Assay in all cases: greenhouse pre-emergence trial, percent damage vs untreated control 21 days after treatment
Type in all cases: in vivo
[1] = system: Lolium perenne; settings: 15 g/ha, LOLPE, Example 2
[2] = system: Papaver rhoeas; settings: PAPRH, Example 2
[3] = system: Stellaria media; settings: 30 g/ha, STEME, Example 2
[4] = system: Veronica persica; settings: VERPE, Example 2
[5] = system: Galium aparine; settings: GALAP, Example 2
[6] = system: Matricaria inodora; settings: MATIN, Example 2

`CC(C)N(C(=O)COc1nnc(C(F)(F)F)s1)c1ccc(F)cc1` [flufenacet] was tested, and the “flufenacet alone (% control)” value [1] was 30%, the “flufenacet alone (% control)” value ([2]; 15 g/ha) was 0% and the “flufenacet alone (% control)” value ([2]; 30 g/ha) was 0%. The “flufenacet alone (% control)” value ([2]; 60 g/ha) was 0%, the “flufenacet alone (% control)” value [3] was 0% and the “flufenacet alone (% control)” value ([4]; 15 g/ha) was 0%. The “flufenacet alone (% control)” value ([4]; 30 g/ha) was 10%, the “flufenacet alone (% control)” value ([4]; 60 g/ha) was 10% and the “flufenacet alone (% control)” value ([5]; 15 g/ha) was 0%. The “flufenacet alone (% control)” value ([5]; 30 g/ha) was 10%, the “flufenacet alone (% control)” value ([5]; 60 g/ha) was 55% and the “flufenacet alone (% control)” value ([6]; 15 g/ha) was 0%. The “flufenacet alone (% control)” value ([6]; 30 g/ha) was 0%.

— US6683027B2, “Herbicidal mixtures” (BASF Aktienegesellschaft, priority 2000, dated 2004)
